According to patent publication US20130143929A1, “FUNGICIDAL IMIDAZOLES” (EI DU PONT DE NEMOURS AND COMPANY, priority 2010, published 2013):
Marks after values point to notes of the source that are not given here.

Columns and labels:
Assay type in all cases: in vivo
[1] = system: Puccinia recondite f. sp. tritici (the causal agent of wheat leaf rust); assay: Test A: wheat leaf rust, preventive spray on wheat seedlings, visual disease rating; details: wheat leaf rust, preventive spray on wheat seedlings
Procedure, shortened: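 Wheat seedlings were sprayed to run-off with compound suspended in acetone/water containing 250 ppm Trem 014 (200 ppm ≈ 800 g/ha; some at 40 ppm). Puccinia recondite spores were inoculated the next day. Plants were held 24 h saturated at 20° C, then 7 days at 20° C, and disease control was rated visually on a 0–100 scale against controls.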

[2] = system: Septoria tritici (the causal agent of wheat leaf blotch); assay: Test B: wheat leaf blotch, preventive spray on wheat seedlings, visual disease rating; details: wheat leaf blotch, preventive spray on wheat seedlings
Procedure, shortened: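 Wheat seedlings sprayed to run-off with compound suspension (acetone/water with 250 ppm Trem 014; 200 ppm ≈ 800 g/ha, some at 40 ppm), inoculated next day with Septoria tritici spores. 48 h saturated humidity at 24 °C, then 19 days at 20 °C; visual rating, 100 = full control.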

[3] = system: Botrytis cinerea (the causal agent of tomato Botrytis); assay: Test C: tomato Botrytis, preventive spray on tomato seedlings, visual disease rating; details: tomato Botrytis, preventive spray on tomato seedlings
Procedure, shortened: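 Test suspension (acetone/water with 250 ppm Trem 014; 200 ppm equivalent to 800 g/ha) sprayed to run-off on tomato seedlings; B. cinerea spores inoculated next day. After 48 h saturated humidity at 20° C then 3 days at 24° C, disease rated visually as % control relative to untreated controls (0–100).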

[4] = system: Blumeria graminis f. sp. tritici (also known as Erysiphe graminis f. sp. tritici, the causal agent of wheat powdery mildew); assay: Test D: wheat powdery mildew, preventive spray on wheat seedlings, visual disease rating; details: wheat powdery mildew, preventive spray on wheat seedlings
Procedure, shortened: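 Compound suspended in acetone/water (50/50) with 250 ppm Trem 014 and sprayed to run-off on wheat seedlings (200 ppm ≈ 800 g/ha), then inoculated next day with spore dust. Disease rated visually after 8 days at 20 °C as % control relative to untreated plants (0-100).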

[5] = asterisk: 40 ppm test suspension
[6] = no asterisk (standard test suspension concentration, not 40 ppm)

Row | Compound | Test A rating (100 = 100% disease control, 0 = no disease control relative to the controls) [1, 5] | Test B rating (100 = 100% disease control, 0 = no disease control relative to the controls) [2, 5] | Test C rating (100 = 100% disease control, 0 = no disease control relative to the controls) [3, 5] | Test D rating (100 = 100% disease control, 0 = no disease control relative to the controls) [4, 5] | Test A rating (100 = 100% disease control, 0 = no disease control relative to the controls) [1, 6] [%] | Test B rating (100 = 100% disease control, 0 = no disease control relative to the controls) [2, 6] [%] | Test C rating (100 = 100% disease control, 0 = no disease control relative to the controls) [3, 6] [%] | Test D rating (100 = 100% disease control, 0 = no disease control relative to the controls) [4, 6] [%]
1 | Cc1nc(Cl)c(C(O)c2ccc(F)cc2Cl)n1-c1c(F)cc(C#N)cc1F (stereo not drawn) [compound 198] | 97* % | 100* % | 0* % | 0* % |  |  |  | 
2 | Cc1nc(Br)c(C(O)c2ccc(C#N)cc2F)n1-c1c(F)cccc1F (stereo not drawn) [compound 199] | 0* % | 62* % | 0* % | 0* % |  |  |  | 
3 | Cc1nc(Cl)c(C(O)c2ccc(F)cc2Cl)n1-c1c(F)cccc1Cl (stereo not drawn) [compound 200] | 100* % | 100* % | 99* % | 98* % |  |  |  | 
4 | Cc1nc(Br)c(C(O)c2ccc(Cl)cc2Cl)n1-c1c(F)cccc1Cl (stereo not drawn) [compound 201] | 100* % | 100* % | 99* % | 89* % |  |  |  | 
5 | Cc1nc(Br)c(C(O)c2ccc(Cl)cc2Cl)n1-c1c(F)cccc1F (stereo not drawn) [compound 202] | 98* % | 100* % | 100* % | 82* % |  |  |  | 
6 | COc1cc(OC)c(Br)c(-n2c(C)nc(Br)c2C(O)c2c(F)cc(F)cc2F)c1 (stereo not drawn) [compound 203] |  |  |  |  | 41 | 30 | 66 | 0
7 | Cc1nc(Cl)c(C(O)c2c(F)cc(F)cc2F)n1-c1ccc(Cl)cc1 (stereo not drawn) [compound 204] |  |  |  |  | 19 | 75 | 45 | 0
8 | Cc1nc(Cl)n(-c2c(F)cccc2Br)c1C(O)c1ccc(F)cc1F (stereo not drawn) [compound 205] | 99* % | 100* % | 100* % | 93* % |  |  |  | 
9 | Cc1nc(Cl)n(-c2c(F)cccc2Cl)c1C(O)c1ccc(F)cc1Cl (stereo not drawn) [compound 206] | 100* % | 100* % | 100* % | 93* % |  |  |  | 
10 | Cc1nc(Cl)n(-c2c(F)cccc2Br)c1C(O)c1ccc(F)cc1Cl (stereo not drawn) [compound 207] | 100* % | 100* % | 100* % | 81* % |  |  |  | 
11 | Cc1cc(F)ccc1C(O)c1c(C)nc(Cl)n1-c1c(F)cccc1Cl (stereo not drawn) [compound 208] | 100* % | 100* % | 99* % | 81* % |  |  |  | 
12 | Cc1cc(F)ccc1C(O)c1c(C)nc(Cl)n1-c1c(F)cccc1Br (stereo not drawn) [compound 209] | 99* % | 100* % | 100* % | 42* % |  |  |  | 
